Measurements as given in ChEMBL document CHEMBL3797153, “Discovery of acyl guanidine tryptophan hydroxylase-1 inhibitors” (Bioorg Med Chem Lett, 2016).
In brackets after ≈: the same amount, converted by molar mass.

Assays:
[1] = Kinetic aqueous solubility in pH 7.4 50 mM phosphate buffer; format: physicochemical; details: read-out: Kinetic_solubility
[2] = Protein binding in rat plasma by equilibrium dialysis; format: ADME, cell-free; details: read-out: PPB (converted)
[3] = tested on: Mus musculus; test: In-vivo inhibition of TPH1 in mouse assessed as 5-HT level in intestinal mucosa at 150 mg/kg, po administered as single dose relative to control; format: functional; set-up: scale not given: the % may be the effect or the level left

SMILES	solubility kinetic [1]	fraction unbound [2]	Activity [3]
CCOC(=O)[C@@H](N)Cc1ccc(C(=O)/N=C(\N)NCc2c(Oc3ccccc3)cccc2N2CCCCC2)cc1			62%
N/C(=N\C(=O)c1ccc(C[C@H](N)C(=O)O)cc1)NCc1c(Oc2ccccc2)cccc1N1CCCCC1			80%
CCOC(=O)[C@@H](N)Cc1ccc(C(=O)/N=C(\N)NCc2c(C)cccc2N2CCCCCC2)cc1			62%

More lines, main results first:

solubility kinetic [1]	fraction unbound [2]	SMILES	Activity [3]
> 40 µM	0.12	COc1cccc(Oc2cccc(N3CCCCC3)c2CN/C(N)=N/C(=O)c2ccc(C[C@H](N)C(=O)O)cc2)c1	
16 µM (≈ 7.99 µg/mL)		N/C(=N\C(=O)c1ccc(C[C@H](N)C(=O)O)cc1)NCc1cc(-c2ccccc2)ccc1N1CCCCC1	
40 µM (≈ 18.1 µg/mL)		Cc1cccc(N2CCCCCC2)c1CN/C(N)=N/C(=O)c1ccc(C[C@H](N)C(=O)O)cc1	72%
2.1 µM (≈ 1.11 µg/mL)	< 0.001	Nc1nc(OC(c2ccc(-c3cccc(F)c3)cc2)C(F)(F)F)cc(-c2ccc(C[C@H](N)C(=O)O)cc2)n1 (stereo not given in full)	
